Reference: US6391857B1, “Methods and compositions for endothelial binding” (Stanford University, priority 1990, dated 2002)

Assays:
ELAM-1 = molecular target: T1, ELAM-1 (Homo sapiens, UniProt P16581); assay: Cell binding assay: L1-2^ELAM-1 cells on glass slides coated with synthetic glycoconjugates; type: cell-based; settings: 25 min RT, 50 rpm
T1 construct: expressed in transfected cells; host or cells: murine pre-B cell line L1-2, vector pMRB101 derivative (pMRB107), hCMV promoter
T1 sequence (P16581 22-610): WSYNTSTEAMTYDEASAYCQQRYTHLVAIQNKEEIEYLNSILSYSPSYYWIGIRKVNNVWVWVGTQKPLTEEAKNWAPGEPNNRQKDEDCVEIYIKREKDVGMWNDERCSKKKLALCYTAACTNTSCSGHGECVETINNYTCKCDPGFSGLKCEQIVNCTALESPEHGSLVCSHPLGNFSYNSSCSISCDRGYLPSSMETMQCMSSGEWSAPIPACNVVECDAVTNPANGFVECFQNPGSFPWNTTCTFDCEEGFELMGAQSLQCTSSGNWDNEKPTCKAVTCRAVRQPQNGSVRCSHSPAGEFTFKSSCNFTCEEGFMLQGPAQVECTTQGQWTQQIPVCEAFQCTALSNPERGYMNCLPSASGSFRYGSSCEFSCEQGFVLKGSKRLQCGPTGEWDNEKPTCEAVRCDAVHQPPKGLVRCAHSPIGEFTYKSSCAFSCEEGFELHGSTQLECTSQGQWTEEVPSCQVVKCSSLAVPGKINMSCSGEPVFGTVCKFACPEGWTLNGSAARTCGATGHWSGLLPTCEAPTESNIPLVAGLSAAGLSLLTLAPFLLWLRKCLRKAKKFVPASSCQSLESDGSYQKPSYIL
Procedure: L1-2/pMRB107 cells (L1-2^ELAM-1) were prepared by transfecting the ELAM-1 gene into the murine pre-B cell line L1-2 (Gallatin et al. (1983) Nature 35 304:30-34). A cDNA clone encoding ELAM-1 was obtained from a CDNA library made from activated human umbilical vein endothelial cell cultures by polymerase chain reaction amplification. The ELAM-1 gene was inserted downstream of the hCMV promoter in pMRB101 [a derivative of EE6 which contains the E. coli gpt gene (Mulligan and Berg (1981) Proc. Nat'l. Acad. Sci. USA 78:2072; Stephens and Corbett (1989) N.A.R. 17:7110)]. DNA was introduced into L1-2 cells by electroporation and the cells selected for resistance to mycophenolic acid. A population of cells staining brightly for ELAM-1 were selected by FACS and cloned by limiting dilution. These cells are ELAM-1^hi LFA-1^mod CD45^hi CD44^neg LECAM-1^neg, differing from the parent cell line or control vector transfectants only in their expression of ELAM-1. L1-2/pMRB101 (L1-2^vector) cells are a similarly transformed derivative of L1-2 transfected with pMRB101 and lacking ELAM-1 expression.
One hundred microliter samples of each synthetic glycoconjugate in phosphate buffered saline (PBS), pH 7.2, were absorbed onto glass wells of 8-chamber slides (LabTek) for two hours at RT. For some experiments glass slides were pre-coated with rabbit anti-human serum albumin (Sigma) at 200 μg/ml overnight at 4° C. and washed with PBS prior to the addition of the glycoconjugate. After blocking with 5% NBS/ 10 mM HEPES/Dulbecco's Modified Eagles Medium (DMEM), pH 7.0 (CM), L1-2^ELAM-1 or L1-2^vector cells were applied to each well (1.5×10^6/0.15 ml in CM). After a 25 minute incubation at RT on a rotating shaker at 50 rpm, the tops of the wells were removed and the slides washed 3× in DMEM and then fixed by incubation in 1.5% glutaral-dehyde (Kodak)/DMEM. Three to six 100× fields were counted for each data point and the average and standard error are reported. Data reported are from representative experiments which were performed 2-5 times with similar results.

antibody 1H10 = assay: Direct binding ELISA of antibody 1H10 to solid-phase neoglycoproteins; design: species or system mouse; settings: 100 ng neoglycoprotein per well, antibody 10 μg/ml
Procedure: Synthetic glycoproteins were coated onto microtiter plates by filling each well with 100 ng of the neoglycoprotein in 100 μl of 0.15 M sodium chloride, 0.01 M sodium phosphate, 0.1% sodium azide, pH 7.4, (PBS-azide) overnight at 4° C. Standard enzyme-linked immunoassays (ELISA) were then performed on the solid phase carbohydrate structures using the appropriate antibody diluted to 10 μg/ml.

mouse LECAM-1 = molecular target: T2, mouse LECAM-1 (Mus musculus, UniProt P18337); assay: Cell binding assay: mouse lymphocytes on coated synthetic glycoconjugates; type: cell-based; settings: mesenteric lymph node lymphocytes, 3×10^6 cells in 0.15 ml
T2 construct: Mouse lymphocytes isolated from mesenteric lymph nodes were also tested; endogenous in cells; host or cells: primary mouse lymphocytes from mesenteric lymph nodes
T2 sequence (P18337 39-372): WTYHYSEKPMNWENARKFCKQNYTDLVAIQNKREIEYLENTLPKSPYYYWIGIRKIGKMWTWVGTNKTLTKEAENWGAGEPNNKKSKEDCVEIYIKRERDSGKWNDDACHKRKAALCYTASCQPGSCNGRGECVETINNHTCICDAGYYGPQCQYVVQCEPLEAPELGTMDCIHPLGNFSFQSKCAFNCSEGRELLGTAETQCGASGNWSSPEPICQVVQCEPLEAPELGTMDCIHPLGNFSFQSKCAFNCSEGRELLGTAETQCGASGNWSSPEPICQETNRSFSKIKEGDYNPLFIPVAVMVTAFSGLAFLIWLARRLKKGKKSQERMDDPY
Procedure: Cell binding assays. One hundred microliter samples of each synthetic glycoconjugate in phosphate buffered saline (PBS), pH7.2, were absorbed onto glass wells of 8-chamber slides (LabTek) for two hours at RT. After blocking with 5% NBS, 10 mM HEPES, Dulbecco's Modified Eagles Medium (DMEM), pH7.0 (CM), L1-2^LECAM-1, L1-2^vector or L1-2^ELAM-1 cells were applied to each well (1.5×10^6 cells in 0.15 ml CM). Mouse lymphocytes isolated from mesenteric lymph nodes were also tested at 3×10^6 cells in 0.15 ml. In some cases, cells were preincubated with monoclonal antibody MEL-14 (Gallatin et al., 1983, supra) at 150 μg/ml/10^7 cells and washed prior to testing. After a 25 minute incubation at RT on a rotating shaker at 50 rpm, the tops of the wells were removed and the slides washed 3× in DMEM and then fixed by incubation in 1.5% glutaraldehyde (Kodak) in DMEM. Three to six 100× fields were counted for each data point and the average and standard error are reported. Data reported are from representative experiments which were performed 2-5 times with similar results.

| Substance | binding of L1-2^ELAM-1 cells to coated glycoconjugate (ELAM-1) | direct binding of antibody 1H10 to neoglycoprotein (antibody 1H10) | binding of mouse lymphocytes to coated neoglycoconjugate (mouse LECAM-1) |
| --- | --- | --- | --- |
| Neu5Acα2-6Galβ1-4GlcNAcβ1-3Galβ1-4(Glc) [LSTc] | did not bind | – | – |
| Neu5Acα2-3Galβ1-3GlcNAcβ1-3Galβ1-4(Glc) [LSTa] | did not bind | weakly crossreacts | not |
| NeuNAc α2-6Gal βl-4 (Glc) [6′SL] | did not bind | – | not |
| NeuNAc α2-3Gal βl-4 (Glc) [3′SL] | did not bind | – | not |
